Data taken from patent publication US20200030355A1, “COMBINATION THERAPY FOR TREATING CANCER” (Epizyme, Inc., priority 2014, published 2020).
Where two headings read alike, the source gives them in different places.

Experiments:
MOLM-13 (MLL-AF9) [1] = assay: Combination proliferation study with Compound A2 (ATP/CellTiter-Glo, Chou-Talalay combination index); assay type: cell-based, human
Procedure, shortened: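 Viability by CellTiter-Glo ATP luminescence; Fa relative to DMSO controls. Combination index by Chou-Talalay (CI<1 synergy, =1 additive, >1 antagonism).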

MOLM-13 (MLL-AF9) [2] = assay: EPZ-5676 7-day pre-treatment, then second compound 72 hours, growth inhibition GI100 shift; primary screen and retest (Example 7); assay type: cell-based, human
Protocol: (§1) Cells were then equilibrated in incubators for 24 hours before treatment with a second compound. Treated assay plates were incubated with a second compound for 72 hours. After this time, plates were developed for endpoint analysis using ATPLite to measure ATP content, which is used as an indicator of cell viability.
(§2) Cells were then treated with a second compound for 72 hours. After this time, plates were developed for endpoint analysis using Cell Titer Glo to measure ATP content, which is used as an indicator of cell viability.
(§3) “N/D” means the GI100 of the second compound could not be determined for both conditions and “-” means not tested.
(§4) Growth Inhibition (GI) as a measure of cell viability: The cell viability of vehicle was measured at the time of dosing the second agent (T0) and after seventy-two hours (T72). […] A GI 200% represents complete death of all cells in the culture well. Compounds reaching an activity plateau of GI 200% are considered cytotoxic. GI is calculated by applying the following test and equation: […]
(§5) where T is the signal measure for a test article, V is the vehicle-treated control measure, and V0 is the vehicle control measure at time zero.

SKM-1 (non-MLLr) = assay: as above; assay type: cell-based, human; settings: 300 nM EPZ-5676 7-day pre-treatment
Protocol: as §1, §2, §3, §4, §5

OCI-AML-4 (MLL-ENL) = assay: as above; assay type: cell-based
Protocol: as §1, §2, §3, §4, §5

ML-2 (MLL-AF6) = assay: EPZ-5676 7-day pre-treatment, then second compound 72 hours, growth inhibition GI100 shift (Example 7); assay type: cell-based
Protocol: as §1, §2, §3, §4, §5

MV4-11 (MLL-AF4) = assay: Combination proliferation study with Compound A2 (ATP/CellTiter-Glo, Chou-Talalay combination index); assay type: cell-based, human
Protocol: The acute myelogenous leukemia cell lines MV4-11 (MLL-AF4) and MOLM-13 (MLL-AF9) were obtained from American Type Culture Collection (ATCC; Rockville, Md.) and Deutsche Sammlung von Mikroorganismen and Zellkulturen (DSMZ; Braunschweig, Germany) respectively.
(§6) Studies were performed using MLL-rearranged cell lines in vitro to evaluate the anti-proliferative effect of a combination of two agents together on cell growth. Initial proliferation studies were performed to determine the IC50 of a given compound in each cell line. The cell counts were measured by ATP quantitation using the Promega Cell Titer Glo kit and luminescence values corresponded to the amount of ATP in a given well.
Compounds were evaluated for synergy in the co-treatment phase by testing the compounds in a concentration range which was bracketed around their IC50 values. The compounds were plated to a 96 well plate in a matrix format (FIG. 3) which includes increasing concentrations of each drug in the combination in a constant ratio, in addition to the effect of each compound alone in the study. Cells were seeded and grown in the log-linear phase for 3 or 7 days in the co-treatment phase. Minimum inhibition (DMSO alone) controls were used in each plate to calculate fraction affected (Fa) of a test well. DMSO concentration was kept at 0.1% v/v.
The drug combination analysis was performed utilizing the Chou-Talalay method Synergy was determined using the software package Calcusyn by Biosoft. The combination index (CI) is a quantitative term used to describe the level of synergy or antagonism in a given test system. A combination index less than one indicates synergy, and a CI greater than one indicates antagonism. Further, strong synergism is achieved when the CI value falls below 0.3.
(§7) Graphs representing values of combination index (CI) versus Fractional effect (Fa) known as Fa-CI plots were generated and synergy was evaluated. Drug synergy was statistically defined by CI values less than 1, antagonism by CI>1 and additive effect by CI equal to 1.
as §7
(§8) The HP-D300 digital dispenser (Tecan) was used to dispense compounds in a combinatorial matrix. […] Cell viability was measured via ATP content using CellTiter-Glo® (Promega).
(§9) Viability was determined using CellTiter-Glo® (Promega).
as §6, with “Proliferation studies” for “Studies”, “MOLM-13, MV4-11 and SKM-1” for “MLL-rearranged”, “cancer cell killing” for “anti-proliferative”, “IC50 values” for “IC50”, “correspond” for “corresponded”
These studies were performed to evaluate both the combinatorial effect of compounds on cell killing and the durability of the effect by washing out one of the agents.
Compounds evaluated for synergy in the co-treatment phase were tested in a range which was bracketed around the IC50's. The compounds were plated to a 96 well plate in a matrix format which includes increasing concentrations of each drug in the combination in a constant ratio, in addition to the effect of each compound alone in the study.

[3] = test system: SKM-1 (non-MLL-rearranged AML); assay: as above; assay type: cell-based, human
Protocol: (§10) Graphs representing values of combination index (CI) versus Fractional effect (Fa) known as Fa-CI plots were generated and synergy was evaluated.
as §10, §8, §9
MV4-11 cells were maintained in IMDM supplemented with 10% fetal bovine serum. MOLM-13 and SKM-1 cells were maintained in Roswell Park Memorial Institute medium (RPMI) supplemented with 10% fetal bovine serum. They were cultured in flasks or plates in a humidified 5% CO2 atmosphere.
as §6, with “Proliferation studies” for “Studies”, “MOLM-13, MV4-11 and SKM-1” for “MLL-rearranged”, “cancer cell killing” for “anti-proliferative”, “IC50 values” for “IC50”, “correspond” for “corresponded”
Compounds evaluated for synergy in the co-treatment phase were tested in a range which was bracketed around the IC50's. The compounds were plated to a 96 well plate in a matrix format which includes increasing concentrations of each drug in the combination in a constant ratio, in addition to the effect of each compound alone in the study. Cells were seeded and grown in the log-linear phase for 3 or 7 days in the cotreatment phase. Maximum and minimum inhibition (DMSO alone) controls were used in each plate to calculate fraction affected (Fa) of a test well. DMSO concentration was kept at 0.1% v/v. The drug combination analysis was performed utilizing the Chou-Talalay method. Synergy was determined using the software package Calcusyn by Biosoft. The combination index (CI) is the term used to describe the level of synergy or antagonism in a given test system. A combination index less than one indicates synergy, and a CI greater than one indicates antagonism.
The drug combination analysis was performed using the Chou-Talalay method. Graphs representing values of combination index (CI) versus Fractional effect (Fa) known as Fa-CI plots were generated and synergy was evaluated.

EOL-1 (MLL-PTD) = assay: Combination proliferation study with Compound A2; assay type: cell-based, human
Protocol: as §8, §9

KOPM-88 (MLL-PTD) = assay: Combination proliferation study with Compound A2; assay type: cell-based, human
Protocol: as §8, §9

MOLM-13 cells = assay: CD11b and CD14 differentiation marker expression by flow cytometry; assay type: cell-based, human; settings: single agents
Protocol: A Guava EasyCyte HT™ flow cytometer was used to measure DNA content, Annexin V staining and cell surface expression of CD14 and CD11b markers on Days 10 and 14.
On Day 0 MOLM-13 cells are seeded at 3,000 cells/mL. On Day 7 and Day 10 MOLM-13 cells are counted and reseeded at 50,000 cells/mL. […] On Day 10 They were redosed again. On Day 14 the experiment was terminated. Cells were sampled for CD14 and CD11b analysis on Days 7, 10 and 14.
On day 7, 10, and 14, cells were collected for analysis. The cells were prepared by washing twice in PBS, followed by fixation in 4% formaldehyde for ten minutes at 37° C. After fixation cells were washed and blocked with blocking buffer for 10 minutes at room temperature. Cells were then incubated in presence of anti-CD14, anti-CD11b or anti-IgG antibody for 1 hour at room temperature while rotating. Cells were washed, re-suspended in PBS and 5,000 events were analyzed using ExpressPro software on the GuavaCyte Plus System.

[4] = 300 nM EPZ-5676 7-day pre-treatment, second compound 72 hours, ATPLite

Row | Compound | Combination with Compound A2, MOLM-13 (MLL-AF9) (MOLM-13 (MLL-AF9) [1]; 7 Day Cotreatment Model, Table 4) | GI100 (MOLM-13 (MLL-AF9) [2]) | Combination with EPZ-5676, MOLM-13 (MLL-AF9) Retest (MOLM-13 (MLL-AF9) [2]; 150 nM EPZ-5676 7-day pre-treatment, second compound 72 hours, Cell Titer Glo) | Combination with EPZ-5676, MOLM-13 (MLL-AF9) Primary screen (MOLM-13 (MLL-AF9) [2]; [4]) | Combination with EPZ-5676, SKM-1 (non-MLLr) Primary screen (SKM-1 (non-MLLr); ATPLite) | Combination with EPZ-5676, SKM-1 (non-MLLr) Retest (SKM-1 (non-MLLr); Cell Titer Glo) | GI100 (OCI-AML-4 (MLL-ENL)) | Combination with EPZ-5676, OCI-AML-4 (MLL-ENL) Primary screen (OCI-AML-4 (MLL-ENL); [4]) | Combination with EPZ-5676, OCI-AML-4 (MLL-ENL) Retest (OCI-AML-4 (MLL-ENL); 300 nM EPZ-5676 7-day pre-treatment, second compound 72 hours, Cell Titer Glo) | GI100 (ML-2 (MLL-AF6)) | Combination with Compound A2, MOLM-13 (MLL-AF9) (MOLM-13 (MLL-AF9) [1]) | Combination with Compound A2 when Compound A2 is washed out prior to the addition of the second agent (MOLM-13 (MLL-AF9) [1]) | Combination with Compound A2 when Compound A2 is washed out prior to the addition of the second agent (MV4-11 (MLL-AF4)) | Combination with Compound A2, SKM-1 AML: Non-rearranged [3] | Effect of Compound A2 on the antiproliferative activity of the second agent [3] | Combination with Compound A2, EOL-1 (MLL-PTD) (EOL-1 (MLL-PTD)) | Combination with Compound A2, KOPM-88 (MLL-PTD) (KOPM-88 (MLL-PTD)) | Differentiation markers CD11b and CD14 (MOLM-13 cells)
1 | CC(=O)Nc1cccc(-n2c(=O)n(C3CC3)c(=O)c3c(Nc4ccc(I)cc4F)n(C)c(=O)c(C)c32)c1 [Trametinib] | Synergy (Drug synergy was statistically defined by CI values less than 1) | 0.03 | Synergy (considered synergistic if the GI100 (Growth inhibition 100) value of the second compound decreased by 2-fold or more when EPZ-5676 was added as compared to the DMSO control) | Synergy (considered synergistic if the GI100 (Growth inhibition 100) value of the second compound decreased by 2-fold or more when EPZ-5676 was added as compared to the DMSO control) | Synergy (considered synergistic if the GI100 (Growth inhibition 100) value of the second compound decreased by 2-fold or more when EPZ-5676 was added as compared to the DMSO control) | Synergy (considered synergistic if the GI100 (Growth inhibition 100) value of the second compound decreased by 2-fold or more when EPZ-5676 was added as compared to the DMSO control) | 0.009 | Synergy (considered synergistic if the GI100 (Growth inhibition 100) value of the second compound decreased by 2-fold or more when EPZ-5676 was added as compared to the DMSO control) | Synergy (considered synergistic if the GI100 (Growth inhibition 100) value of the second compound decreased by 2-fold or more when EPZ-5676 was added as compared to the DMSO control) | 0.001 |  |  |  |  |  |  |  | 
2 | COc1cccc2c1C(=O)c1c(O)c3c(c(O)c1C2=O)C[C@@](O)(C(C)=O)C[C@@H]3O[C@H]1C[C@H](N)[C@H](O)[C@H](C)O1 [Daunorubicin] |  |  |  |  |  |  |  |  |  |  | Synergy (key: Synergy: Drug synergy was statistically defined by CI values less than 1; Antagonistic: antagonism by CI>1; Additive: additive effect by CI equal to 1) | synergistic anti-proliferative activity was maintained | synergistic anti-proliferative activity was maintained | did not act synergistically | did not affect | Synergy (key: Synergy: Drug synergy was statistically defined by CI values less than 1; Antagonistic: antagonism by CI>1; Additive: additive effect by CI equal to 1) | Synergy (key: Synergy: Drug synergy was statistically defined by CI values less than 1; Antagonistic: antagonism by CI>1; Additive: additive effect by CI equal to 1) | The same effect was observed
